This is an account of results in article PMC10999543, “Identification of kinase modulators as host-directed therapeutics against intracellular methicillin-resistant Staphylococcus aureus” (Frontiers in Cellular and Infection Microbiology, 2024).

One series relates to intracellular MRSA. It is filed as cell-based, Staphylococcus aureus. Conditions: for %GFP+ rep 1 / z-scoreMRSA+ rep 1: replicate 1; for %GFP+ rep 2 / z-scoreMRSA+ rep 2: replicate 2; for %GFP+ rep 3 / z-scoreMRSA+ rep 3: replicate 3; for z-scoreMRSA+ mean: mean of 3 replicates. Put shortly: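 Values are z-scores: GFP-positive HeLa percentage and event count per well against plate statistics, minus the mean DMSO z-score. Wells deviating two-fold from controls were left out of plate means. Infection was at a mean MOI of 6.8, with an overnight compound exposure.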

The next series relates to HeLa cells. The series can be described thus: Compound screen by flow cytometry: HeLa cell count as surrogate readout of cell viability (z-scoreHeLa). The note with it: for cell count rep 1 / z-scoreHeLa rep 1: replicate 1; for cell count rep 2 / z-scoreHeLa rep 2: replicate 2; for cell count rep 3 / z-scoreHeLa rep 3: replicate 3; for z-scoreHeLa mean: mean of 3 replicates. It is filed as cell-based, human. Put shortly:
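The viability surrogate was the count of fixed HeLa cells by flow cytometry, converted to z-scores against DMSO controls with values deviating two-fold excluded. Before counting, cells had been infected with MRSA for 1 h and cleared of extracellular bacteria with gentamicin. They were then exposed overnight to kinase inhibitors in triplicate.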

In a further series the test system is EGFR. Details: method as in Elkins et al., 2016. The note with it: PKIS1, Caliper assay, ref Elkins et al., 2016; cited from earlier work.
A further series has as its system HER2. Details: method as in Elkins et al., 2016. The note with it: PKIS1, Caliper assay, ref Elkins et al., 2016; cited from earlier work.
A further series relates to HER4. Details: method as in Elkins et al., 2016. The note with it: PKIS1, Caliper assay, ref Elkins et al., 2016; cited from earlier work.
Series [1] concerns intracellular MRSA in HeLa cells. The series can be described thus: Gentamicin protection assay with CFU count in MRSA-infected HeLa cells. Format: cell-based, Staphylococcus aureus. Conditions: tested at different concentrations, Figure 4K. The protocol: The cells were resuspended in cell culture medium without antibiotics, seeded with 10,000 cells/well into Costar flat-bottom 96-well plates (Corning, Amsterdam, the Netherlands), and were incubated overnight at 37°C/5% CO2. The next day, the bacteria were centrifuged at ≥1800 g for 15 min and resuspended in cold PBS + 5 mM ethylenediaminetetraacetic acid (EDTA). The number of CFUs present in the bacterial suspension was estimated from the optical density at 600 nm (OD600) by assuming 8x10^8 CFUs to be present in a bacterial suspension with OD600 = 1, based on prior titrations. The bacterial suspension was diluted in cell culture medium without antibiotics and added to the cells. Accuracy of the multiplicity of infection (MOI) was validated by plating serial dilutions of the MRSA inoculums on Difco TS agar plates (BD Biosciences). The calculated mean MOI throughout all experiments was 6.8 ± 4.6 (mean ± SD). Infected cells were centrifuged for 3 min at 150 g and incubated for 1 hour at 37°C/5% CO2. Next, the cells were incubated with fresh cell culture medium supplemented with 30 µg/ml gentamicin sulphate (Lonza BioWhittaker, Basel, Switzerland) for 15 min at 37°C/5% CO2 to kill residual extracellular bacteria. Infected cells were incubated overnight at 37°C/5% CO2 in cell culture medium in the presence of kinase inhibitors and 5 µg/ml gentamicin sulphate-containing medium to prevent the growth of extracellular bacteria. The solvent of the compounds, DMSO, was used at equal % v/v as a negative control. For the screen, each compound was tested in triplicate, on separate cell culture plates, resulting in triplicate values for each kinase inhibitor.
Infected cells were lysed in sterile water + 0.05% UltraPure SDS solution (Invitrogen, ThermoFisher Scientific) to release intracellular bacteria. Bacterial suspensions and lysates of cells infected with MRSA were 5-fold serially diluted and 10-μl drops were plated on square TS agar plates. The plates were left to dry and incubated overnight at 37°C/5% CO2.

[2] abbreviates: PKIS compound screen raw data, MRSA-infected HeLa cells.
Where [3] appears, read: PKIS compound screen, MRSA-infected HeLa cells.
Where [4] appears, read: PKIS compound screen, Yes/No call (effect without cell death).
The mark [5] stands for this setting: PKIS compound screen, Yes/No call on z-scoreMRSA+.
Setting [6] is: PKIS compound screen raw data, HeLa cell count.
The mark [7] stands for this setting: PKIS compound screen, HeLa cell count.
Setting [8] is: PKIS compound screen, Yes/No call on z-scoreHeLa.
[9] abbreviates: PKIS compounds raw data, MRSA-infected HeLa cells.
Setting [10] is: compound screen, MRSA-infected HeLa cells.
Setting [11] is: PKIS compounds raw data, HeLa cell count.
The mark [12] stands for this setting: compound screen, HeLa cell count.
[13] abbreviates: PKIS compound screen, Yes/No call.

Where two headings read alike, the source gives them in different places.

In the case of `[O-][S+]1CCN(Cc2ccc(-c3ccc4ncnc(Nc5ccc(OCc6cccc(F)c6)c(Cl)c5)c4c3)o2)CC1` [GW576609A], in the series with intracellular MRSA (setting [2]), the “%GFP+ rep 1” value was found to be 13.3%, the “%GFP+ rep 2” value came to 14.3% and the “%GFP+ rep 3” value worked out at 14.3%. For the same molecule, in the series with intracellular MRSA (setting [3]), the “z-scoreMRSA+ mean” value was -1.46, the “z-scoreMRSA+ rep 1” value is listed as -1.45, the “z-scoreMRSA+ rep 2” value was -1.27 and the “z-scoreMRSA+ rep 3” value is -1.67. In addition, the hit entry with intracellular MRSA (setting [4]) is “No”. The effect result in the series on intracellular MRSA (setting [5]) is “No”. In the series with HeLa cells (setting [6]), the “cell count rep 1” value was found to be 27921, the “cell count rep 2” value came out at 36007 and the “cell count rep 3” value is 40876. Moreover, in the series on HeLa cells (setting [7]), the z-scoreHeLa mean was 0.49, the “z-scoreHeLa rep 1” value was determined as 1.18, the “z-scoreHeLa rep 2” value stood at 0.23 and the “z-scoreHeLa rep 3” value is listed as 0.0554. Moreover, the cell death result in the series on HeLa cells (setting [8]) was “No”. The “% inhibition at 1 µM EGFR” value in the series with EGFR is 84%. Further, the “% inhibition at 1 µM HER2” value in the series on HER2 is 80%. Further, the “% inhibition at 1 µM HER4” value in the series with HER4 is recorded as 91%.
Regarding `O=S(=O)(CCOCc1ccc(-c2ccc3ncnc(Nc4ccc(OCc5cccc(F)c5)c(Cl)c4)c3c2)o1)c1ccccc1` [GW615311X], in the series on intracellular MRSA (setting [9]), the “%GFP+ rep 1” value came out at 14.3%, the “%GFP+ rep 2” value came out at 12.7% and the “%GFP+ rep 3” value is 13.9%. In the series on intracellular MRSA (Yes/No call from z-scoreMRSA+), the effect entry is on record as “No”. In addition, the hit entry in the series with intracellular MRSA (Yes/No: effect without cell death) is “No”. Besides, in the series on intracellular MRSA (setting [10]), the “z-scoreMRSA+ mean” value is recorded as -0.16, the “z-scoreMRSA+ rep 1” value was found to be 0.36, the “z-scoreMRSA+ rep 2” value was -0.27 and the “z-scoreMRSA+ rep 3” value is given as -0.59. In addition, in the series with HeLa cells (setting [11]), the “cell count rep 1” value is reported as 4217, the “cell count rep 2” value is reported as 4665 and the “cell count rep 3” value amounted to 7934. The cell death entry in the series with HeLa cells (Yes/No call from z-scoreHeLa) was “No”. Further, in the series with HeLa cells (setting [12]), the z-scoreHeLa mean came out at 0.09, the “z-scoreHeLa rep 1” value is -0.51, the “z-scoreHeLa rep 2” value is reported as 0.30 and the “z-scoreHeLa rep 3” value was found to be 0.47. Further, the “% inhibition at 1 µM EGFR” value in the series with EGFR was 85%. The “% inhibition at 1 µM HER2” value in the series with HER2 is 70%. Further, the “% inhibition at 1 µM HER4” value in the series with HER4 is recorded as 73%.
Regarding `[O-][S+]1CCN(Cc2ccc(-c3ccc4ncnc(Nc5ccc(OCc6ccccc6)c(Cl)c5)c4c3)o2)CC1` [GW583373A], the effect entry in the series on intracellular MRSA (setting [13]) is recorded as “No”. For the same molecule, the hit result in the series with intracellular MRSA (setting [4]) is “No”. In the series with intracellular MRSA (PKIS compound screen), the “z-scoreMRSA+ mean” value was -1.31, the “z-scoreMRSA+ rep 1” value is on record as -1.43, the “z-scoreMRSA+ rep 2” value is on record as -1.26 and the “z-scoreMRSA+ rep 3” value is reported as -1.26. Besides, in the series on intracellular MRSA (setting [9]), the “%GFP+ rep 1” value amounted to 19.7%, the “%GFP+ rep 2” value was found to be 19.5% and the “%GFP+ rep 3” value is 20.5%. The cell death entry with HeLa cells (setting [13]) is listed as “No”. In addition, in the series with HeLa cells (PKIS compound screen), the z-scoreHeLa mean was determined as 1.46, the “z-scoreHeLa rep 1” value was determined as 1.65, the “z-scoreHeLa rep 2” value is 1.30 and the “z-scoreHeLa rep 3” value was determined as 1.44. In addition, in the series on HeLa cells (setting [11]), the “cell count rep 1” value is 8794, the “cell count rep 2” value was 7971 and the “cell count rep 3” value amounted to 7863. Further, in the series on HER2, the “% inhibition at 1 µM HER2” value is on record as 73%. Further, the “% inhibition at 1 µM HER4” value in the series with HER4 was 84%.
With `CNC(=O)CN1CCC(Oc2cc3c(Nc4cccc(Cl)c4F)ncnc3cc2OC)CC1` [sapitinib, reference compound], the “effect on bacterial burden of MRSA-infected HeLa cells” value in series [1] is “unable to reduce the bacterial burden”.
Regarding `Cc1nn2c(=O)cc(N3CCOCC3)nc2n1Cc1cccc(Cl)c1Cl` [GSK2342769A], in the series on intracellular MRSA (setting [2]), the “%GFP+ rep 1” value came to 10.7%, the “%GFP+ rep 2” value was determined as 10.7% and the “%GFP+ rep 3” value worked out at 15.0%. Also, in the series on intracellular MRSA (setting [3]), the “z-scoreMRSA+ mean” value is on record as -2.08, the “z-scoreMRSA+ rep 1” value is on record as -2.16, the “z-scoreMRSA+ rep 2” value was -2.38 and the “z-scoreMRSA+ rep 3” value was -1.70. Also, in the series on intracellular MRSA (setting [13]), the effect result is listed as “No”. Further, the hit entry in the series with intracellular MRSA (setting [4]) is “No and Yes”. Further, the effect result in the series on intracellular MRSA (setting [5]) was “Yes”. In addition, in the series with intracellular MRSA (PKIS compound screen), the “z-scoreMRSA+ mean” value was -0.59, the “z-scoreMRSA+ rep 1” value is -0.67, the “z-scoreMRSA+ rep 2” value is recorded as -0.54 and the “z-scoreMRSA+ rep 3” value is listed as -0.55. For the same molecule, in the series with intracellular MRSA (setting [9]), the “%GFP+ rep 1” value turned out to be 23.6%, the “%GFP+ rep 2” value came out at 23.2% and the “%GFP+ rep 3” value amounted to 24.3%. For the same molecule, in the series on HeLa cells (setting [6]), the “cell count rep 1” value amounted to 31673, the “cell count rep 2” value was 24146 and the “cell count rep 3” value is recorded as 21902. In the series on HeLa cells (setting [7]), the z-scoreHeLa mean was found to be 0.21, the “z-scoreHeLa rep 1” value is recorded as 0.25, the “z-scoreHeLa rep 2” value is on record as -0.19 and the “z-scoreHeLa rep 3” value is given as 0.58. Besides, the cell death result with HeLa cells (setting [13]) was “No”. Moreover, the cell death entry with HeLa cells (setting [8]) is “No”. In the series on HeLa cells (PKIS compound screen), the z-scoreHeLa mean was -1.49, the “z-scoreHeLa rep 1” value is -1.68, the “z-scoreHeLa rep 2” value is on record as -1.59 and the “z-scoreHeLa rep 3” value is given as -1.19. In addition, in the series with HeLa cells (setting [11]), the “cell count rep 1” value is recorded as 3246, the “cell count rep 2” value is listed as 3614 and the “cell count rep 3” value is recorded as 3721.
For `Cc1nc(-c2ccccc2)n2nc(NCCCN3CCOCC3)ncc12` [GW874091X], the effect result in the series with intracellular MRSA (setting [13]) was “No”. For the same molecule, the hit entry in the series on intracellular MRSA (setting [4]) is given as “No”. Moreover, in the series with intracellular MRSA (PKIS compound screen), the “z-scoreMRSA+ mean” value is reported as 0.31, the “z-scoreMRSA+ rep 1” value stood at 0.36, the “z-scoreMRSA+ rep 2” value was determined as 0.54 and the “z-scoreMRSA+ rep 3” value amounted to 0.0338. In the series on intracellular MRSA (setting [9]), the “%GFP+ rep 1” value worked out at 14.3%, the “%GFP+ rep 2” value was found to be 15.1% and the “%GFP+ rep 3” value amounted to 16.0%. Besides, the cell death result in the series with HeLa cells (setting [13]) was “No”. In the series on HeLa cells (PKIS compound screen), the z-scoreHeLa mean was -0.73, the “z-scoreHeLa rep 1” value is on record as -1.54, the “z-scoreHeLa rep 2” value was -0.37 and the “z-scoreHeLa rep 3” value is on record as -0.27. In addition, in the series on HeLa cells (setting [11]), the “cell count rep 1” value is 3071, the “cell count rep 2” value turned out to be 3785 and the “cell count rep 3” value worked out at 6390.
